Data as given in US12187723B2 (BRISTOL-MYERS SQUIBB COMPANY, priority 2019, dated 2025).
pIC50: −log10 of the molar value.

Molecular target: T1, human TLR7 (Homo sapiens, UniProt Q9NYK1)
T1 construct: host or cells: HEK-Blue cells
T1 sequence (Q9NYK1 27-1049): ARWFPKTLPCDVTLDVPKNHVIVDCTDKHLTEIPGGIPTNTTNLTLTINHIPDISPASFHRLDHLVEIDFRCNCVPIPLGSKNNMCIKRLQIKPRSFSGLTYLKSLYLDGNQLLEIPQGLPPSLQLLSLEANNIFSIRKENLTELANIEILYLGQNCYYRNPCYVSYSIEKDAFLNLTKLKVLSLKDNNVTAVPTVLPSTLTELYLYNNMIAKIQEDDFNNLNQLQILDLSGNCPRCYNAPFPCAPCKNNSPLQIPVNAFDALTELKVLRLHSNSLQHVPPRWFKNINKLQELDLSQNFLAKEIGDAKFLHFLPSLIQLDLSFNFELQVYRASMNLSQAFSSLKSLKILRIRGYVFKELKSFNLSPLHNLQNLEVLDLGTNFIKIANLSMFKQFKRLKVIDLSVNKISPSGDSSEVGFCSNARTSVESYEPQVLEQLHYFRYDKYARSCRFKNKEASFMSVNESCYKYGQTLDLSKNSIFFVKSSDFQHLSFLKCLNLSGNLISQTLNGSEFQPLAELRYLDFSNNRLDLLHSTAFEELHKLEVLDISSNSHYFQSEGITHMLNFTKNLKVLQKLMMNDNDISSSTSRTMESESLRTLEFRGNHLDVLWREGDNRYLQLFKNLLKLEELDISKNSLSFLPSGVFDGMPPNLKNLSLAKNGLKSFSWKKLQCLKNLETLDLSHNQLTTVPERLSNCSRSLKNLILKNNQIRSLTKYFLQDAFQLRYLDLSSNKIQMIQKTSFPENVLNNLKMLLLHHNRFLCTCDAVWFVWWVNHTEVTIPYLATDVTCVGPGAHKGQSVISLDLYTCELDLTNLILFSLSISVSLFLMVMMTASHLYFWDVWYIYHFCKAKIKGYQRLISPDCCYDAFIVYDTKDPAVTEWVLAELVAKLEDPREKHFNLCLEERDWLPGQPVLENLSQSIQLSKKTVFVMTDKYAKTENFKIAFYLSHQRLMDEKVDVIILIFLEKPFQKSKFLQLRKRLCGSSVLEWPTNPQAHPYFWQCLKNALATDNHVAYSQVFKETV
Experiment: TLR7 inhibition reporter assay (HEK-Blue SEAP)
Format: cell-based
Conditions: HEK-Blue cells overexpressing human TLR7, gardiquimod 7.5 μM, 22 hour incubation
Protocol: TLR7/8/9 Inhibition Reporter Assays
Briefly, cells are seeded into Greiner 384 well plates (15000 cells per well for TLR7, 20,000 for TLR8 and 25,000 for TLR9) and then treated with test compounds in DMSO to yield a final dose response concentration range of 0.05 nM-50 μM. […] After a 22 hour incubation at 37° C., 5% CO2, SEAP levels are determined with the addition of HEK-Blue™ Detection reagent (Invivogen), a cell culture medium that allows for detection of SEAP, according to manufacturer's specifications. The percent inhibition is determined as the % reduction in the HEK-Blue signal present in wells treated with agonist plus DMSO alone compared to wells treated with a known inhibitor.

Row | Structure (SMILES) | pIC50
1 | COc1cc(-c2cc3[nH]c(=O)n(C4CCN(C(C)C)CC4)c3cc2C)cn2ncnc12 [Example 10, 1-(1-isopropylpiperidin-4-yl)-5-(8-methoxy-[1,2,4]triazolo[1,5-a]pyridin-6-yl)-6-methyl-1,3-dihydro-2H-benzo[d]imidazol-2-one] | 7.20
2 | Cc1cc2c(cc1-c1cc(C)c3ncnn3c1)[nH]c(=O)n2[C@@H]1CCCN(CC(N)=O)C1 [Example 94, (R)-2-(3-(6-methyl-5-(8-methyl-[1,2,4]triazolo[1,5-a]pyridin-6-yl)-2-oxo-2,3-dihydro-1H-benzo[d]imidazol-1-yl)piperidin-1-yl)acetamide] | 6.15
3 | Cc1cc2c(cc1-c1cc(C)c3ncnn3c1)[nH]c(=O)n2[C@@H]1CCCN(CC(=O)N(C)C)C1 [Example 95, (R)—N,N-dimethyl-2-(3-(6-methyl-5-(8-methyl-[1,2,4]triazolo[1,5-a]pyridin-6-yl)-2-oxo-2,3-dihydro-1H-benzo[d]imidazol-1-yl)piperidin-1-yl)acetamide] | 6.93
4 | COCCN1CCC[C@@H](n2c(=O)[nH]c3cc(-c4cc(C)c5ncnn5c4)c(C)cc32)C1 [Example 97, (R)-1-(1-(2-methoxyethyl)piperidin-3-yl)-6-methyl-5-(8-methyl-[1,2,4]triazolo[1,5-a]pyridin-6-yl)-1,3-dihydro-2H-benzo[d]imidazol-2-one] | 7.41
5 | COCCN1CCC[C@@H](n2c(=O)[nH]c3cc(-c4cc(OC)c5ncnn5c4)c(C)cc32)C1 [Example 98, (R)-5-(8-methoxy-[1,2,4]triazolo[1,5-a]pyridin-6-yl)-1-(1-(2-methoxyethyl)piperidin-3-yl)-6-methyl-1,3-dihydro-2H-benzo[d]imidazol-2-one] | 7.69
6 | COc1cc(-c2cc3[nH]c(=O)n(C4CCN(C(=O)CN(C)C)CC4)c3cc2C)cn2ncnc12 [Example 100, 1-(1-(2-(dimethylamino)acetyl)piperidin-4-yl)-5-(8-methoxy-[1,2,4]triazolo[1,5-a]pyridin-6-yl)-6-methyl-1H-benzo[d]imidazol-2(3H)-one] | 6.26
7 | Cc1cc2c(cc1-c1cc(C)c3ncnn3c1)[nH]c(=O)n2[C@H]1CCCN(C(=O)CN(C)C)C1 [Example 103, (S)-1-(1-(dimethylglycyl)piperidin-3-yl)-6-methyl-5-(8-methyl-[1,2,4]triazolo[1,5-a]pyridin-6-yl)-1,3-dihydro-2H-benzo[d]imidazol-2-one] | 6.67
8 | Cc1cc2c(cc1-c1cc(C)c3ncnn3c1)[nH]c(=O)n2[C@@H]1CCCN(C(=O)CN(C)C)C1 [Example 104, (R)-1-(1-(dimethylglycyl)piperidin-3-yl)-6-methyl-5-(8-methyl-[1,2,4]triazolo[1,5-a]pyridin-6-yl)-1,3-dihydro-2H-benzo[d]imidazol-2-one] | 7.15
9 | COc1cc(-c2cc3[nH]c(=O)n(C4CCCN(C(=O)CN(C)C)C4)c3cc2C)cn2ncnc12 (stereo not shown) [Example 105, 1-(1-(dimethylglycyl)piperidin-3-yl)-5-(8-methoxy-[1,2,4]triazolo[1,5-a]pyridin-6-yl)-6-methyl-1,3-dihydro-2H-benzo[d]imidazol-2-one] | 6.40
10 | Cc1cc(-c2cc(C)c3ncnn3c2)cc2[nH]c(=O)n(C3CCN(C)CC3)c12 [Example 106, 7-methyl-5-(8-methyl-[1,2,4]triazolo[1,5-a]pyridin-6-yl)-1-(1-methylpiperidin-4-yl)-1,3-dihydro-2H-benzo[d]imidazol-2-one] | 7.53
11 | Cc1cc(-c2cc(C)c3ncnn3c2)cc2[nH]c(=O)n(C3CCN(CC(=O)N(C)C)CC3)c12 [Example 109, N,N-dimethyl-2-(4-(7-methyl-5-(8-methyl-[1,2,4]triazolo[1,5-a]pyridin-6-yl)-2-oxo-2,3-dihydro-1H-benzo[d]imidazol-1-yl)piperidin-1-yl)acetamide] | 7.13

The next lines start with the values.

Row | pIC50 | Structure (SMILES)
12 | 7.36 | COc1cc(-c2cc3[nH]c(=O)n([C@H]4CCCN(CC5CC5)C4)c3cc2C(C)C)cn2ncnc12 (single isomer, unassigned) [Example 128]
13 | 8.07 | CCN1CCC[C@@H](n2c(=O)[nH]c3cc(-c4cc(OC)c5ncnn5c4)c(C(C)C)cc32)C1 (single isomer, unassigned) [Example 144]
14 | 7.52 | Cc1cc2c(cc1-c1cc(C)c3ncnn3c1)[nH]c(=O)n2C1CCN(C)CC1 [Example 3, 6-methyl-5-(8-methyl-[1,2,4]triazolo[1,5-a]pyridin-6-yl)-1-(1-methylpiperidin-4-yl)-1,3-dihydro-2H-benzo[d]imidazol-2-one]
15 | 6.06 | Cc1cc(-c2ccc3c(c2)[nH]c(=O)n3C2CCN(C)CC2)cn2ncnc12 [Example 4, 5-(8-methyl-[1,2,4]triazolo[1,5-a]pyridin-6-yl)-1-(1-methylpiperidin-4-yl)-1,3-dihydro-2H-benzo[d]imidazol-2-one]
16 | 5.81 | Cc1cc(-c2ccc3c(c2)[nH]c(=O)n3C2CCN(C(C)C)CC2)cn2ncnc12 [Example 5, 1-(1-isopropylpiperidin-4-yl)-5-(8-methyl-[1,2,4]triazolo[1,5-a]pyridin-6-yl)-1,3-dihydro-2H-benzo[d]imidazol-2-one]
17 | 7.41 | CCN1CCC(n2c(=O)[nH]c3cc(-c4cc(C)c5ncnn5c4)c(C)cc32)CC1 [Example 6, 1-(1-ethylpiperidin-4-yl)-6-methyl-5-(8-methyl-[1,2,4]triazolo[1,5-a]pyridin-6-yl)-1,3-dihydro-2H-benzo[d]imidazol-2-one]
18 | 7.38 | CCCN1CCC(n2c(=O)[nH]c3cc(-c4cc(C)c5ncnn5c4)c(C)cc32)CC1 [Example 7, 6-methyl-5-(8-methyl-[1,2,4]triazolo[1,5-a]pyridin-6-yl)-1-(1-propylpiperidin-4-yl)-1,3-dihydro-2H-benzo[d]imidazol-2-one]
19 | 7.15 | CCN1CCC(n2c(=O)[nH]c3cc(-c4cc(OC)c5ncnn5c4)c(C)cc32)CC1 [Example 9, 1-(1-ethylpiperidin-4-yl)-5-(8-methoxy-[1,2,4]triazolo[1,5-a]pyridin-6-yl)-6-methyl-1,3-dihydro-2H-benzo[d]imidazol-2-one]
20 | 7.18 | Cc1cc2c(cc1-c1cc(C)c3ncnn3c1)[nH]c(=O)n2[C@@H]1CCCN(CC#N)C1 [Example 96, (R)-2-(3-(6-methyl-5-(8-methyl-[1,2,4]triazolo[1,5-a]pyridin-6-yl)-2-oxo-2,3-dihydro-1H-benzo[d]imidazol-1-yl)piperidin-1-yl)acetonitrile]
21 | 6.41 | COc1cc(-c2cc3[nH]c(=O)n([C@@H]4CCCN(CC(=O)N(C)C)C4)c3cc2C)cn2ncnc12 [Example 99, (R)-2-(3-(5-(8-methoxy-[1,2,4]triazolo[1,5-a]pyridin-6-yl)-6-methyl-2-oxo-2,3-dihydro-1H-benzo[d]imidazol-1-yl)piperidin-1-yl)-N,N-dimethylacetamide]
22 | 6.76 | Cc1cc2c(cc1-c1cc(C)c3ncnn3c1)[nH]c(=O)n2C1CCN(C(=O)CN(C)C)CC1 [Example 101, 1-(1-(dimethylglycyl)piperidin-4-yl)-6-methyl-5-(8-methyl-[1,2,4]triazolo[1,5-a]pyridin-6-yl)-1,3-dihydro-2H-benzo[d]imidazol-2-one]
23 | < 5.51 | Cc1cc(-c2ccc3c(c2)[nH]c(=O)n3C2CCN(C(=O)CN(C)C)CC2)cn2ncnc12 [Example 102, 1-(1-(dimethylglycyl)piperidin-4-yl)-5-(8-methyl-[1,2,4]triazolo[1,5-a]pyridin-6-yl)-1,3-dihydro-2H-benzo[d]imidazol-2-one]
24 | 7.48 | Cc1cc(-c2cc(C)c3ncnn3c2)cc2[nH]c(=O)n(C3CCN(C(C)C)CC3)c12 [Example 107, 1-(1-isopropylpiperidin-4-yl)-7-methyl-5-(8-methyl-[1,2,4]triazolo[1,5-a]pyridin-6-yl)-1,3-dihydro-2H-benzo[d]imidazol-2-one]
25 | 7.94 | CCN1CCC(n2c(=O)[nH]c3cc(-c4cc(C)c5ncnn5c4)cc(C)c32)CC1 [Example 108, 1-(1-ethylpiperidin-4-yl)-7-methyl-5-(8-methyl-[1,2,4]triazolo[1,5-a]pyridin-6-yl)-1,3-dihydro-2H-benzo[d]imidazol-2-one]
